US20250367323A1, “PLATFORM FOR RADIOLYTIC NEUROMODULATION” (THE UAB RESEARCH FOUNDATION, priority 2024, published 2025)
Read-outs that look alike come from different tables or passages of the source.

Columns and labels:
[1] = system: isolated Drosophila brains
dTRPA1(A)10b = molecular target: T1, dTRPA1(A)10b (Drosophila melanogaster, UniProt Q7Z020); format: cell-based; settings: for change in intracellular Ca2+ on agonist administration: HEK293 cells expressing dTRPA1(A)10b, H2O2 10 μM, BITC 100 μM added at end of experiment
T1 construct: expressed in transfected cells; host or cells: HEK293
T1 sequence (Q7Z020 with tags, fused parts or gaps isoform Q7Z020-5): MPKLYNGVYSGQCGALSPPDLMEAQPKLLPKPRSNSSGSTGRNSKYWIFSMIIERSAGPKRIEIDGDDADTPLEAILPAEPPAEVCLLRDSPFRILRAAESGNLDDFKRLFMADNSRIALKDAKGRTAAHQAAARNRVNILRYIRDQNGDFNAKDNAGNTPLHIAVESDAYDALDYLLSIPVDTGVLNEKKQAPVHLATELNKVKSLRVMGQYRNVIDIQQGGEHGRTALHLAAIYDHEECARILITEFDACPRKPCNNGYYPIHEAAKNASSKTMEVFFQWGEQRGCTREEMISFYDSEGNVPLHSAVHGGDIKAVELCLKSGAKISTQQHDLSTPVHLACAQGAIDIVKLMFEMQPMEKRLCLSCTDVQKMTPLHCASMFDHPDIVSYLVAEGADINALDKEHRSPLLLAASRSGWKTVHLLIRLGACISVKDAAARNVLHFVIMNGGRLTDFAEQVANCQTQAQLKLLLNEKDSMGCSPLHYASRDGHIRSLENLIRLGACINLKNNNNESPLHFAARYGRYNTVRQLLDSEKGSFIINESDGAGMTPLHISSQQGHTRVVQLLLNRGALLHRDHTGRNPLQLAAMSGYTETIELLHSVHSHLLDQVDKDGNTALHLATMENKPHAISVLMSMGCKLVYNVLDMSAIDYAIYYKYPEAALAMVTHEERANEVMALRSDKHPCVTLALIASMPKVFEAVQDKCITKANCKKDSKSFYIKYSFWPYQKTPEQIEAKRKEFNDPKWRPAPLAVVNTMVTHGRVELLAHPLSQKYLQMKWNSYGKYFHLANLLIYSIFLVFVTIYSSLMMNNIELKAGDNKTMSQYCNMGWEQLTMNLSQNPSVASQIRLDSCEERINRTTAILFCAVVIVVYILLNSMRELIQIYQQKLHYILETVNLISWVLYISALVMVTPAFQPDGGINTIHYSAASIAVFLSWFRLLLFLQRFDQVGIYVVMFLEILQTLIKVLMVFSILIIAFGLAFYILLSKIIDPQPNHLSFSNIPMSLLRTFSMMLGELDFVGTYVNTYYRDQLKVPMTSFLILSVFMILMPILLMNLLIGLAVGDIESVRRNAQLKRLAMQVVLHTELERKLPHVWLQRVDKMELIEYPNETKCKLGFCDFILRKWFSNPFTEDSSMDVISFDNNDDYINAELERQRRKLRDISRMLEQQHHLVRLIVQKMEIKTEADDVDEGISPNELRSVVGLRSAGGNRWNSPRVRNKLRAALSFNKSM
Procedure: (§1) (FIG. 1A) Cells expressing either dTRPA1, mTRPA1, or mCherry were Xray irradiated (0.5 nGy/cm^2/sec) for 60 sec while monitoring changes in intracellular Ca^2+. BITC (100 μM) was added at the end of the experiments to confirm TRPA1 expression. […] (FIG. 1B) As in (FIG. 1A), except cells were stimulated with H2O2 (10 μM) administration. […] One-way ANOVA with Tukey's multiple comparisons test.
(§2) The Xrs source (FIG. 3A) was mounted to a Zeiss 710 LSM confocal imaging system. Changes in intracellular Ca^2+ were detected using a Fluo-4 Direct™ calcium assay kit. Fluo-4 epifluorescence changes were computed as (Fi-Fo; ΔF)/Fo, where Fi, is the fluorescence intensity at any frame and F0, is the resting fluorescence. F0 was calculated as the averaged fluorescence of the first 3 frames before stimulation.

mouse TRPA1 (mTRPA1) = molecular target: T2, mouse TRPA1 (mTRPA1) (Mus musculus, UniProt Q8BLA8); test: Intracellular Ca2+ imaging (Fluo-4) in HEK293 cells expressing mTRPA1; format: cell-based; settings: H2O2 10 μM, BITC 100 μM added at end of experiment
T2 construct: expressed in transfected cells; host or cells: HEK293
T2 sequence (Q8BLA8 whole entry): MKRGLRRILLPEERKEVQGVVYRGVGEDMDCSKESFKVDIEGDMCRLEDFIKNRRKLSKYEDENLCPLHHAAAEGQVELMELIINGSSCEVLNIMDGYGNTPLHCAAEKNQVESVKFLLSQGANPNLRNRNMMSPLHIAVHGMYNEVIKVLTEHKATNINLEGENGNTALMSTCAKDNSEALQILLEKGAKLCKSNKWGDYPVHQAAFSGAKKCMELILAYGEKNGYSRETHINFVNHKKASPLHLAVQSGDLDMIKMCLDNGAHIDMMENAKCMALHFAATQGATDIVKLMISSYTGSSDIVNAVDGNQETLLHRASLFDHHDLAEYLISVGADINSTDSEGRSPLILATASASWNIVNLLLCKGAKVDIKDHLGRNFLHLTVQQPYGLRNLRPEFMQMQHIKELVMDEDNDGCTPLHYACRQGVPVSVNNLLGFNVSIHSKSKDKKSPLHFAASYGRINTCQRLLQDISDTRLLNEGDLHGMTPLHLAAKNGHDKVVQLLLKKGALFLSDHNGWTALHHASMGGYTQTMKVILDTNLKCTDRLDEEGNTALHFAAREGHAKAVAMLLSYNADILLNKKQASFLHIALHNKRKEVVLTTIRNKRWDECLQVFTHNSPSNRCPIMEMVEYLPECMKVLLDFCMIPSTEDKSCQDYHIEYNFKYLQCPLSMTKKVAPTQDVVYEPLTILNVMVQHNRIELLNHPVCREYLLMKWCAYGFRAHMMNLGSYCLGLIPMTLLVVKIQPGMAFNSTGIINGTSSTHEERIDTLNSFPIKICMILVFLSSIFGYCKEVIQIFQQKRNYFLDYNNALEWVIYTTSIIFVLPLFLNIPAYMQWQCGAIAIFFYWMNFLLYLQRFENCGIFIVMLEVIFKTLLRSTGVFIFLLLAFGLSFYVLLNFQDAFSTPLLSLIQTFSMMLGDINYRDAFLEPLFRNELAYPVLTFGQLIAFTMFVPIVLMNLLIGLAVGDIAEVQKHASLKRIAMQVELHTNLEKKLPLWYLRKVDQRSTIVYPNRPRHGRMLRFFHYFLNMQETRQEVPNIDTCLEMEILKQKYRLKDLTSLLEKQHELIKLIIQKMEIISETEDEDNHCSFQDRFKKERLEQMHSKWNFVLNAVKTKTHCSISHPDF
Procedure: as §1, §2

[2] = system: HEK293 cells expressing mCherry; test: Intracellular Ca2+ imaging (Fluo-4) in HEK293 cells expressing mCherry control; format: cell-based, human; settings: HEK293 cells expressing mCherry only; H2O2 10 μM; BITC 100 μM added at end of experiment
Procedure: as §1, §2

[3] = system: isolated Drosophila brains; settings: brains perfused with 200 μM H2O2; electrode in vs out of brain p<0.0042; n=3
Drosophila = settings: flies fed food containing H2O2 (1%) for 5 hours vs vehicle; 1 hour acclimation; p<0.03; n=29-30

SMILES | change in intracellular Ca2+ on agonist administration (dTRPA1(A)10b) | change in intracellular Ca2+ on agonist administration (mouse TRPA1 (mTRPA1)) | change in intracellular Ca2+ on agonist administration [2] | further results
N[C@@H](Cc1ccc(O)c(I)c1)C(=O)O [3IY, 3-iodotyrosine] | – | – | – | effect on Xrs-stimulated DA release (AUC of amperometric signals) after DA depletion ([1]; 10 mg/mL orally administered to flies for 24 hr vs vehicle, p<0.013, n=13-15): significantly reduces the ability of Xrs to stimulate DA release
S=C=NCc1ccccc1 [BITC, benzyl isothiocyanate] | increases intracellular Ca^2+ | increases intracellular Ca^2+ | modest increase in Ca^2+ | –
OO [H2O2, hydrogen peroxide] | promotes an acute increase in intracellular Ca^2+ | not observed | not observed | DA release (peak amperometric current) [3]: stimulates DA release; locomotion (total beam crossings over a 4 hr period) (Drosophila): significantly stimulates locomotion
CC(C)c1ccc(NC(=O)Cn2cnc3c2c(=O)n(C)c(=O)n3C)cc1 [HC-030031] | – | – | – | effect on Xrs-stimulated DA release (AUC of amperometric current) ([1]; Xrs 0.1 Gy/sec for 250 msec, brains incubated 5 min with 1 μM TTX or 100 μM HC-030031 vs control/vehicle): inhibits Xrs-stimulated DA release
NC1=N[C@H](O)[C@H]2[C@H]3O[C@]4(O)O[C@@H]([C@@H](O)[C@@]2(N1)[C@@H]4O)[C@]3(O)CO [TTX, tetrodotoxin] | – | – | – | effect on Xrs-stimulated DA release (AUC of amperometric current) [1]: robustly inhibits this release
CC1(C)CC(O)CC(C)(C)N1[O] [Tempol] | – | – | – | effect on Xray-induced Ca2+ increases (dTRPA1(A)10b; Xray irradiation, ROS scavenger present): blocked
